Test results from patent US20210255193A1, “LYSINE REACTIVE PROBES AND USES THEREOF” (The Scripps Research Institute, priority 2017, published 2021).
Each block holds one molecule with its values, some of them ahead of it.

How the values were obtained:
Assay in all cases: competitive isoTOP-ABPP
Type in all cases: binding
[1] = target: T1, ERO1L ERO1-like protein alpha (Homo sapiens, UniProt Q96HE7); details: for R value (DMSO/fragment) for probe 1 labeling: Q96HE7_K413; for R value (DMSO/fragment) for probe 1 labeling / isoTOP-ABPP reactivity ratio at lysine Q96HE7_K413 / isoTOP-ABPP ratio (R) at liganded lysine Q96HE7_K413: 50 uM, in vitro; for R value (DMSO/fragment) for probe 1 labeling / isoTOP-ABPP reactivity ratio at lysine Q96HE7_K413: 231 sol; for isoTOP-ABPP ratio (R) at liganded lysine Q96HE7_K413: sol, 231; for isoTOP-ABPP ratio, lysine Q96HE7_K413: possible other lysine Q86YB8_K412
T1 construct: isoTOP-ABPP experiments performed in cell lysates (in vitro); endogenous in cells; host or cells: soluble proteome of human cancer cell lines (MDA-MB-231; Ramos and Jurkat also prepared)
T1 sequence (Q96HE7 24-468): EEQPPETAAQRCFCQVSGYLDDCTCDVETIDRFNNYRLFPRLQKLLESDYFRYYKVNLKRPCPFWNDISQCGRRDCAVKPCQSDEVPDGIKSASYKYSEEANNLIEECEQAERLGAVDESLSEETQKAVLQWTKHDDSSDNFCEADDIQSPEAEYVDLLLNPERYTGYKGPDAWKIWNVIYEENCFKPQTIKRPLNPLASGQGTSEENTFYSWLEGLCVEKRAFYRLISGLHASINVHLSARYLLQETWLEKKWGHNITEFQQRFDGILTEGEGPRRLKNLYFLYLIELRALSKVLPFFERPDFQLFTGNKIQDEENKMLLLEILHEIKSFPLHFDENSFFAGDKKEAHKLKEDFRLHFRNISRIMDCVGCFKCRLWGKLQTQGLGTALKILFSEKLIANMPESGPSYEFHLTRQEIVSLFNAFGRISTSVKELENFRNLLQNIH
In short: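 Readout: isotopic light/heavy MS1 peak-area ratio (R, DMSO heavy over compound light), median across peptides sharing a modified lysine. Lysate received fragment (activated esters 50 μM, guanidinylating agents 100 μM final) or DMSO, then 0.1 mM STP-alkyne probe for 1 h at ambient temperature.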

[2] = target: T2, MAP1LC3B Microtubule-associated proteins 1A/1B light chain (Homo sapiens, UniProt Q9GZQ8); set-up: key to isoTOP-ABPP reactivity ratio at lysine Q9GZQ8_K51: R = MS1 peak area ratio, DMSO (heavy) / compound-treated (light); details: for R value (DMSO/fragment) for probe 1 labeling: Q9GZQ8_K51; for R value (DMSO/fragment) for probe 1 labeling / isoTOP-ABPP reactivity ratio at lysine Q9GZQ8_K51 / isoTOP-ABPP ratio (R) at liganded lysine Q9GZQ8_K51: 50 uM, in vitro; for R value (DMSO/fragment) for probe 1 labeling / isoTOP-ABPP reactivity ratio at lysine Q9GZQ8_K51: 231 sol; for isoTOP-ABPP ratio (R) at liganded lysine Q9GZQ8_K51: sol, 231
T2 construct: isoTOP-ABPP experiments performed in cell lysates (in vitro); endogenous in cells; host or cells: soluble proteome of human cancer cell lines (MDA-MB-231; Ramos and Jurkat also prepared)
Procedure: (§1) In vitro covalent fragment treatment for isoTOP-ABPP. All compounds were made up as solutions in DMSO (100×) and were used at a final concentration of 50 μM for activated esters and 100 μM for guanidinylating agents. For each profiling sample, 0.5 ml of lysate was treated with 5 μl of the 100× compound stock solution or 5 μl of DMSO. Samples were treated with activated esters for
(§2) STP-alkyne labeling and click chemistry. For concentration-dependent reactivity measurements by isoTOP-ABPP, 0.5 ml proteome aliquots were treated at ambient temperature with 1 mM STP-alkyne 1 (5 μl of 100 mM stock in DMSO) and 0.1 mM STP alkyne 1 (5 μl of 10 mM stock in DMSO), respectively. For competitive isoTOP-ABPP, after in vitro fragment treatment (detailed above), the samples were labeled for 1 h at ambient temperature with 0.1 mM STP-alkyne 1 (5 μl of 10 mM stock in DMSO). Samples were conjugated by copper-mediated azide-alkyne cycloaddition (CuAAC) to either the light (1 mM STP-alkyne or fragment treated) or heavy (0.1 mM STP-alkyne or DMSO treated) TEV tags (10 μl of 5 mM stocks in DMSO, final concentration=100 μM) using tris(2-carboxyethyl)phosphine hydrochloride
(§3) R value calculation and processing. The ratios of light and heavy MS1 peaks for each unique peptide were quantified with a CIMAGE software using default parameters (3 MS1 acquisitions per peak and signal to noise threshold set to 2.5). For reactivity measurements by isoTOP-ABPP, the R value was calculated from the ratio of MS1 peak areas, comparing the 1 mM STP alkyne sample (light TEV tag) with the 0.1 mM STP alkyne sample (heavy TEV tag). For competitive isoTOP-ABPP, the R value was calculated from the ratio of MS1 peak areas, comparing the DMSO treated sample (heavy TEV tag) with the compound treated sample (light TEV tag). […] Ratios for unique peptide entries are calculated for each experiment; overlapping peptides with the same modified lysine (for example, different charge states, MudPIT chromatographic steps or tryptic termini) are grouped together and the median ratio is reported as the final ratio (R). The peptide ratios reported by CIMAGE were further filtered to ensure the removal or correction of low-quality ratios in each individual data set. The quality filters applied were the following: removal of half tryptic peptides; for ratios with high standard deviations from the median (90% of the median or above) the lowest ratio was taken instead of the median; removal of peptides with R=20 and only a single MS2 event triggered during the elution of the parent ion; manual annotation of all the peptides with ratios of 20, removing any peptides with low quality elution profiles that remained after the previous curation steps (only done for competitive isoTOP-ABPP).
(§4) Cross-data processing for fragment screening. For compound treated samples, biological replicates of the same condition were averaged, if the standard deviation was below 60% of the mean; otherwise, for lysines with at least one R value <4 for a particular compound, the lowest value of the ratio set was taken. For lysines, where all R values for a particular compound were ≥4, the average was reported. For peptides containing several possible modified lysines, the lysine with the highest number of quantification events was used for analysis and the remaining, redundant peptides were reported as alternative modification sites. Peptides included in the aggregate dataset (those used for further bioinformatics and statistical analyses) were required to have been quantified in 2 experiments for competitive isoTOP-ABPP. Lysines were categorized as liganded, if they had at least one ratio R≥4 (hit fragments). For liganded lysines with R=20 for all liganding events, lysines were required to have been quantified with R=20 in two separate experiments and were further required to have been quantified with R<20 in one additional experiment.

[3] = target: T3, ABHD10 Abhydrolase domain-containing protein 10, mitochondrial (Homo sapiens, UniProt Q9NUJ1); set-up: key to isoTOP-ABPP reactivity ratio at lysine Q9NUJ1_K185: R = MS1 peak area ratio, DMSO (heavy) / compound-treated (light); capped at 20; details: for R value (DMSO/fragment) for probe 1 labeling: Q9NUJ1_K185; for R value (DMSO/fragment) for probe 1 labeling / isoTOP-ABPP reactivity ratio at lysine Q9NUJ1_K185 / isoTOP-ABPP ratio (R) at liganded lysine Q9NUJ1_K185: 50 uM, in vitro; for R value (DMSO/fragment) for probe 1 labeling / isoTOP-ABPP reactivity ratio at lysine Q9NUJ1_K185: 231 sol; for isoTOP-ABPP ratio (R) at liganded lysine Q9NUJ1_K185: sol, 231
T3 construct: endogenous in cells; host or cells: MDA-MB-231 lysate
T3 sequence (Q9NUJ1 53-306): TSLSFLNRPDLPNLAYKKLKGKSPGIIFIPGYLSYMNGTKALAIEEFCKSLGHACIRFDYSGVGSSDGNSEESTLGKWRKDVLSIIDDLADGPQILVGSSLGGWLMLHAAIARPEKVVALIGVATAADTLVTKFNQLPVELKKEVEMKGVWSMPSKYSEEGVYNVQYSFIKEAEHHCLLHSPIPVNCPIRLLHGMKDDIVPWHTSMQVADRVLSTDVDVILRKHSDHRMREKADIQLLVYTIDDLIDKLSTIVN
Procedure: as §1, §2, §3, §4

R value (DMSO/fragment) for probe 1 labeling [1]: 0.5
R value (DMSO/fragment) for probe 1 labeling [2]: 1.0
R value (DMSO/fragment) for probe 1 labeling [3]: 1.2
Structure (SMILES): O=C(CCc1cn(-c2ccccc2)nc1-c1ccccc1)Oc1c(F)c(F)c(F)c(F)c1F [fragment 19, Pentafluorophenyl 3-(1,3-diphenyl-1H-pyrazol-4-yl)propanoate]

R value (DMSO/fragment) for probe 1 labeling [1]: 0.9
R value (DMSO/fragment) for probe 1 labeling [2]: 0.9
R value (DMSO/fragment) for probe 1 labeling [3]: 1.1
Structure (SMILES): O=C(Oc1c(F)c(F)c(F)c(F)c1F)C(c1ccccc1)c1ccccc1 [fragment 20, Pentafluorophenyl 2,2-diphenylacetate]

isoTOP-ABPP reactivity ratio at lysine Q96HE7_K413 [1]: 1.4
isoTOP-ABPP reactivity ratio at lysine Q9GZQ8_K51 [2]: 1.0
isoTOP-ABPP reactivity ratio at lysine Q9NUJ1_K185 [3]: 1.2
Structure (SMILES): CCn1cc(C(=O)Oc2c(F)c(F)c(F)c(F)c2F)c(=O)c2ccc(C)nc21 [fragment 28, Pentafluorophenyl 1-ethyl-7-methyl-4-oxo-1,4-dihydro-1,8-naphthyridine-3-carboxylate]

Structure (SMILES): O=C(CCc1cn(-c2ccccc2)nc1-c1ccccc1)Oc1ccc([N+](=O)[O-])cc1[N+](=O)[O-] [fragment 29, 2,4-Dinitrophenyl 3-(1,3-diphenyl-1H-pyrazol-4-yl)propanoate]
isoTOP-ABPP reactivity ratio at lysine Q96HE7_K413 [1]: 20.0
isoTOP-ABPP reactivity ratio at lysine Q9GZQ8_K51 [2]: 0.8
isoTOP-ABPP reactivity ratio at lysine Q9NUJ1_K185 [3]: 1.3

Structure (SMILES): O=C(Oc1ccc([N+](=O)[O-])cc1[N+](=O)[O-])C(c1ccccc1)c1ccccc1 [fragment 30, 2,4-Dinitrophenyl 2,2-diphenylacetate]
isoTOP-ABPP reactivity ratio at lysine Q96HE7_K413 [1]: 1.2
isoTOP-ABPP reactivity ratio at lysine Q9GZQ8_K51 [2]: 1.2
isoTOP-ABPP reactivity ratio at lysine Q9NUJ1_K185 [3]: 2.4

Structure (SMILES): Cn1cc(CC(=O)Oc2ccc([N+](=O)[O-])cc2[N+](=O)[O-])c2ccccc21 [fragment 32, 2,4-Dinitrophenyl 2-(1-methyl-1H-indol-3-yl)acetate]
isoTOP-ABPP reactivity ratio at lysine Q96HE7_K413 [1]: 20.0
isoTOP-ABPP reactivity ratio at lysine Q9GZQ8_K51 [2]: 0.9
isoTOP-ABPP reactivity ratio at lysine Q9NUJ1_K185 [3]: 1.4

Structure (SMILES): O=C(Oc1ccc([N+](=O)[O-])cc1[N+](=O)[O-])c1ccc2ccccc2n1 [fragment 35, 2,4-Dinitrophenyl quinoline-2-carboxylate]
isoTOP-ABPP ratio (R) at liganded lysine Q96HE7_K413 [1]: 2.2
isoTOP-ABPP ratio (R) at liganded lysine Q9GZQ8_K51 [2]: 1.0
isoTOP-ABPP ratio (R) at liganded lysine Q9NUJ1_K185 [3]: 1.3

Structure (SMILES): O=C(Oc1ccc([N+](=O)[O-])cc1[N+](=O)[O-])c1ccc(-c2ccccc2)cc1 [fragment 37, 2,4-Dinitrophenyl [1,1′-biphenyl]-4-carboxylate]
isoTOP-ABPP ratio (R) at liganded lysine Q96HE7_K413 [1]: 2.4
isoTOP-ABPP ratio (R) at liganded lysine Q9GZQ8_K51 [2]: 0.9
isoTOP-ABPP ratio (R) at liganded lysine Q9NUJ1_K185 [3]: 1.2

Structure (SMILES): CC(C)(C)OC(=O)NCCCC(=O)Oc1ccc([N+](=O)[O-])cc1[N+](=O)[O-] [fragment 41, 2,4-Dinitrophenyl 4-((tert-butoxycarbonyl)amino)butanoate]
isoTOP-ABPP ratio (R) at liganded lysine Q96HE7_K413 [1]: 1.7
isoTOP-ABPP ratio (R) at liganded lysine Q9GZQ8_K51 [2]: 0.9
isoTOP-ABPP ratio (R) at liganded lysine Q9NUJ1_K185 [3]: 3.3

Structure (SMILES): N#Cc1ccc(C(=O)Oc2ccc([N+](=O)[O-])cc2[N+](=O)[O-])cc1 [fragment 44, 2,4-Dinitrophenyl 4-cyanobenzoate]
isoTOP-ABPP ratio, lysine Q96HE7_K413 ([1]; 50 uM_231_sol_in vitro): 1.9
isoTOP-ABPP ratio, lysine Q9GZQ8_K51 ([2]; 50 uM_231_sol_in vitro): 0.9
isoTOP-ABPP ratio, lysine Q9NUJ1_K185 ([3]; 50 uM_231_sol_in vitro): 1.2

Structure (SMILES): O=C(ON1C(=O)CCC1=O)c1cc(C(F)(F)F)cc(C(F)(F)F)c1 [fragment 46, 3,5-Bis(trifluoromethyl)benzoic acid NHS ester]
isoTOP-ABPP ratio, lysine Q96HE7_K413 ([1]; 50 uM_231_sol_in vitro): 6.5
isoTOP-ABPP ratio, lysine Q9NUJ1_K185 ([3]; 50 uM_231_sol_in vitro): 1.2

isoTOP-ABPP ratio, lysine Q96HE7_K413 ([1]; 100 uM_231_sol_in vitro): 1.4
isoTOP-ABPP ratio, lysine Q9GZQ8_K51 ([2]; 100 uM_231_sol_in vitro): 4.6
isoTOP-ABPP ratio, lysine Q9NUJ1_K185 ([3]; 100 uM_231_sol_in vitro): 1.3
Structure (SMILES): CC(C)(C)OC(=O)N=C(NC(=O)OC(C)(C)C)n1cccn1 [fragment 50, reference compound]
